Data as given in US8937078B2, “Quinazolinones as prolyl hydroxylase inhibitors” (Janssen Pharmaceutica NV, priority 2009, dated 2015).

What was measured:
human PHD2 (PHD2181-417) = target: T1, human PHD2 (PHD2181-417) (Homo sapiens, UniProt Q9GZT9); assay: PHD enzymatic assay ([14C]-succinic acid production); type: biochemical; details: PHD2181-417, HIF-1α peptide 10 μM, average of results; read-out: Enzyme pIC50 (converted)
T1 construct: Smt (SUMO) tag (cleaved yes); made in house; host or cells: E. coli BL21 (pBAD vector)
Outline: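 Activity measured as [14C]-succinic acid formed from [5-14C]-2-oxoglutarate over 10 minutes, with peptide substrate at 10 μM, in Tris-HCl pH 7.5 buffer containing catalase, DTT and ascorbate. Unreacted oxoglutarate removed by DNP derivatisation; supernatant beta-counted.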

Hep-3B cells = assay: Cellular assay: erythropoietin secretion in Hep-3B cells; type: cell-based, human; details: Homo sapiens, Hep3B, 100 μM compound, 24 hours, percent of EPO secretion relative to assay control compound 7-[(4-Chloro-phenyl)-(5-methyl-isoxazol-3-ylamino)-methyl]-quinolin-8-ol, read-out: Cellular % EPO Stimulation
Outline: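 Hep-3B cells in DMEM with 10% FBS, treated 24 h after plating with compounds at 100 μM final for a further 24 h. Secreted EPO in supernatant measured by MSD electrochemiluminescence sandwich immunoassay with anti-EPO detection antibody.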

T1 sequence (Q9GZT9 181-417): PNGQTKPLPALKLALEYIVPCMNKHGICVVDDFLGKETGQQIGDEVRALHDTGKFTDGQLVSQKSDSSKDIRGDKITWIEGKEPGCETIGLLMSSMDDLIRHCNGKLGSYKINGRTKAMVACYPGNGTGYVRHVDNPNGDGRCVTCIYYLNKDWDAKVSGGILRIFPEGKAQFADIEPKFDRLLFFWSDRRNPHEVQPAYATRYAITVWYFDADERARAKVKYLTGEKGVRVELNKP

O=C(O)c1cnn(-c2nc3cc(S(=O)(=O)c4ccccc4)ccc3c(=O)[nH]2)c1 [Example 81, 1-(7-Benzenesulfonyl-4-oxo-3,4-dihydro-quinazolin-2-yl)-1H-pyrazole-4-carboxylic acid]
IC50 (human PHD2 (PHD2181-417)): 79.4 nM
Emax at 100 µM (Hep-3B cells): 26%

CC(=O)Nc1ccc2nc(-n3cc(C(=O)O)cn3)[nH]c(=O)c2c1 [Example 167, 1-(6-Acetylamino-4-oxo-3,4-dihydro-quinazolin-2-yl)-1H-pyrazole-4-carboxylic acid]
IC50 (human PHD2 (PHD2181-417)): 31.6 nM
Emax at 100 µM (Hep-3B cells): 26%

Cc1cccc(C)c1CNc1ccc2nc(-n3cc(C(=O)O)cn3)[nH]c(=O)c2c1 [Example 175, 1-[6-(2,6-Dimethyl-benzylamino)-4-oxo-3,4-dihydro-quinazolin-2-yl]-1H-pyrazole-4-carboxylic acid]
IC50 (human PHD2 (PHD2181-417)): 31.6 nM
Emax at 100 µM (Hep-3B cells): 97%

CCc1ccccc1-c1ccc2nc(-n3cc(C(=O)O)cn3)[nH]c(=O)c2c1 [Example 203, 1-[6-(2-Ethyl-phenyl)-4-oxo-3,4-dihydro-quinazolin-2-yl]-1H-pyrazole-4-carboxylic acid]
IC50 (human PHD2 (PHD2181-417)): 31.6 nM
Emax at 100 µM (Hep-3B cells): 77%

Cc1ccc2nc(-n3cc(C(=O)O)cn3)[nH]c(=O)c2c1 [Example 8, 1-(6-Methyl-4-oxo-3,4-dihydro-quinazolin-2-yl)-1H-pyrazole-4-carboxylic acid]
IC50 (human PHD2 (PHD2181-417)): 39.8 nM
Emax at 100 µM (Hep-3B cells): 14%

Cc1cc2nc(-n3cc(C(=O)O)cn3)[nH]c(=O)c2cc1Oc1cc(Cl)ccc1Cl [Example 90, 1-[6-(2,5-dichloro-phenoxy)-7-methyl-4-oxo-3,4-dihydro-quinazolin-2-yl]-1H-pyrazole-4-carboxylic acid]
IC50 (human PHD2 (PHD2181-417)): 25.1 nM
Emax at 100 µM (Hep-3B cells): 113%

COc1cccc2c(=O)[nH]c(-n3cc(C(=O)O)cn3)nc12 [Example 7, 1-(8-Methoxy-4-oxo-3,4-dihydro-quinazolin-2-yl)-1H-pyrazole-4-carboxylic acid]
IC50 (human PHD2 (PHD2181-417)): 158 nM
Emax at 100 µM (Hep-3B cells): 25%

O=C(O)c1cnn(-c2nc3ccc(SC(F)(F)F)cc3c(=O)[nH]2)c1 [Example 156, 1-(4-Oxo-6-trifluoromethylsulfanyl-3,4-dihydro-quinazolin-2-yl)-1H-pyrazole-4-carboxylic acid]
IC50 (human PHD2 (PHD2181-417)): 31.6 nM
Emax at 100 µM (Hep-3B cells): 19%

CC(C)(C)c1cc(Oc2ccc3nc(-n4cc(C(=O)O)cn4)[nH]c(=O)c3c2)cc(C(C)(C)C)c1 [Example 35, 1-[6-(3,5-Di-tert-butyl-phenoxy)-4-oxo-3,4-dihydro-quinazolin-2-yl]-1H-pyrazole-4-carboxylic acid]
IC50 (human PHD2 (PHD2181-417)): 31.6 nM
Emax at 100 µM (Hep-3B cells): 8%

C#Cc1ccc2nc(-n3cc(C(=O)O)cn3)[nH]c(=O)c2c1 [Example 76, 1-(6-Ethynyl-4-oxo-3,4-dihydro-quinazolin-2-yl)-1H-pyrazole-4-carboxylic acid]
IC50 (human PHD2 (PHD2181-417)): 31.6 nM
Emax at 100 µM (Hep-3B cells): 16%

O=C(O)c1cnn(-c2nc3cc(O)ccc3c(=O)[nH]2)c1 [Example 154, 1-(7-Hydroxy-4-oxo-3,4-dihydro-quinazolin-2-yl)-1H-pyrazole-4-carboxylic acid]
IC50 (human PHD2 (PHD2181-417)): 50.1 nM
Emax at 100 µM (Hep-3B cells): 12%

CC(C)Oc1ccc2nc(-n3cc(C(=O)O)cn3)[nH]c(=O)c2c1 [Example 104, 1-(6-isopropoxy-4-oxo-3,4-dihydro-quinazolin-2-yl)-1H-pyrazole-4-carboxylic acid]
IC50 (human PHD2 (PHD2181-417)): 31.6 nM
Emax at 100 µM (Hep-3B cells): 75%

O=C(O)c1cnn(-c2nc3ccc(N4CCCC4)cc3c(=O)[nH]2)c1 [Example 123, 1-(4-Oxo-6-pyrrolidin-1-yl-3,4-dihydro-quinazolin-2-yl)-1H-pyrazole-4-carboxylic acid]
IC50 (human PHD2 (PHD2181-417)): 39.8 nM
Emax at 100 µM (Hep-3B cells): 17%

O=C(O)c1cnn(-c2nc3ccc(NC(=O)c4ccccc4)cc3c(=O)[nH]2)c1 [Example 165, 1-(6-Benzoylamino-4-oxo-3,4-dihydro-quinazolin-2-yl)-1H-pyrazole-4-carboxylic acid]
IC50 (human PHD2 (PHD2181-417)): 25.1 nM
Emax at 100 µM (Hep-3B cells): 19%

O=C(O)c1cnn(-c2nc3c(F)cccc3c(=O)[nH]2)c1 [Example 118, 1-(8-Fluoro-4-oxo-3,4-dihydro-quinazolin-2-yl)-1H-pyrazole-4-carboxylic acid]
IC50 (human PHD2 (PHD2181-417)): 79.4 nM
Emax at 100 µM (Hep-3B cells): 16%

O=C(O)c1cnn(-c2nc3cc(Cl)c(Oc4cccc5c4CCCC5)cc3c(=O)[nH]2)c1 [Example 55, 1-[7-Chloro-4-oxo-6-(5,6,7,8-tetrahydro-naphthalen-1-yloxy)-3,4-dihydro-quinazolin-2-yl]-1H-pyrazole-4-carboxylic acid]
IC50 (human PHD2 (PHD2181-417)): 31.6 nM
Emax at 100 µM (Hep-3B cells): 25%

O=C(O)c1cnn(-c2nc3cc(Cl)c(SC(F)(F)F)cc3c(=O)[nH]2)c1 [Example 159, 1-(7-Chloro-4-oxo-6-trifluoromethylsulfanyl-3,4-dihydro-quinazolin-2-yl)-1H-pyrazole-4-carboxylic acid]
IC50 (human PHD2 (PHD2181-417)): 25.1 nM
Emax at 100 µM (Hep-3B cells): 16%

O=C(O)c1cnn(-c2nc3ccc(Oc4cccc5c4CCCC5)cc3c(=O)[nH]2)c1 [Example 44, 1-[4-Oxo-6-(5,6,7,8-tetrahydro-naphthalen-1-yloxy)-3,4-dihydro-quinazolin-2-yl]-1H-pyrazole-4-carboxylic acid]
IC50 (human PHD2 (PHD2181-417)): 25.1 nM
Emax at 100 µM (Hep-3B cells): 52%

O=C(O)c1cnn(-c2nc3ccc(-c4cccc5c4OCCO5)cc3c(=O)[nH]2)c1 [Example 204, 1-[6-(2,3-Dihydro-benzo[1,4]dioxin-5-yl)-4-oxo-3,4-dihydro-quinazolin-2-yl]-1H-pyrazole-4-carboxylic acid]
IC50 (human PHD2 (PHD2181-417)): 15.8 nM
Emax at 100 µM (Hep-3B cells): 111%

O=C(O)c1cnn(-c2nc3ccc(-c4ccc5cc[nH]c5c4)cc3c(=O)[nH]2)c1 [Example 108, 1-[6-(1H-Indol-6-yl)-4-oxo-3,4-dihydro-quinazolin-2-yl]-1H-pyrazole-4-carboxylic acid]
IC50 (human PHD2 (PHD2181-417)): 25.1 nM
Emax at 100 µM (Hep-3B cells): 85%

O=C(O)c1cnn(-c2nc3c(C(F)(F)F)cccc3c(=O)[nH]2)c1 [Example 16, 1-(4-Oxo-8-trifluoromethyl-3,4-dihydro-quinazolin-2-yl)-1H-pyrazole-4-carboxylic acid]
IC50 (human PHD2 (PHD2181-417)): 251 nM
Emax at 100 µM (Hep-3B cells): 16%

O=C(O)c1cnn(-c2nc3cc(F)c(C4CCCCC4)cc3c(=O)[nH]2)c1 [Example 110, 1-(6-Cyclohexyl-7-fluoro-4-oxo-3,4-dihydro-quinazolin-2-yl)-1H-pyrazole-4-carboxylic acid]
IC50 (human PHD2 (PHD2181-417)): 158 nM
Emax at 100 µM (Hep-3B cells): 47%

O=C(O)c1cnn(-c2nc3cc(-c4ccccc4Cl)ccc3c(=O)[nH]2)c1 [Example 185, 1-[7-(2-Chloro-phenyl)-4-oxo-3,4-dihydro-quinazolin-2-yl]-1H-pyrazole-4-carboxylic acid]
IC50 (human PHD2 (PHD2181-417)): 100 nM
Emax at 100 µM (Hep-3B cells): 15%

O=C(O)c1cnn(-c2nc3ccc(Oc4cccc(-c5ccccc5)c4)cc3c(=O)[nH]2)c1 [Example 99, 1-[6-(biphenyl-3-yloxy)-4-oxo-3,4-dihydro-quinazolin-2-yl]-1H-pyrazole-4-carboxylic acid]
IC50 (human PHD2 (PHD2181-417)): 25.1 nM
Emax at 100 µM (Hep-3B cells): 81%

O=C(O)c1cnn(-c2nc3cc(S(=O)(=O)c4ccccc4Cl)ccc3c(=O)[nH]2)c1 [Example 83, 1-[7-(2-Chloro-benzenesulfonyl)-4-oxo-3,4-dihydro-quinazolin-2-yl]-1H-pyrazole-4-carboxylic acid]
IC50 (human PHD2 (PHD2181-417)): 100 nM
Emax at 100 µM (Hep-3B cells): 11%

COc1cccc(C2CCCN(c3cc4c(=O)[nH]c(-n5cc(C(=O)O)cn5)nc4cc3Cl)C2)c1 (racemic) [Example 86, (rac)-1-{7-Chloro-6-[3-(3-methoxy-phenyl)-piperidin-1-yl]-4-oxo-3,4-dihydro-quinazolin-2-yl}-1H-pyrazole-4-carboxylic acid]
IC50 (human PHD2 (PHD2181-417)): 25.1 nM
Emax at 100 µM (Hep-3B cells): 71%

CSc1ccc2nc(-n3cc(C(=O)O)cn3)[nH]c(=O)c2c1 [Example 155, 1-(6-Methylsulfanyl-4-oxo-3,4-dihydro-quinazolin-2-yl)-1H-pyrazole-4-carboxylic acid]
IC50 (human PHD2 (PHD2181-417)): 31.6 nM
Emax at 100 µM (Hep-3B cells): 40%

COc1cc2nc(-n3cc(C(=O)O)cn3)[nH]c(=O)c2cc1Oc1c(C)cccc1C [Example 61, 1-[6-(2,6-Dimethyl-phenoxy)-7-methoxy-4-oxo-3,4-dihydro-quinazolin-2-yl]-1H-pyrazole-4-carboxylic acid]
IC50 (human PHD2 (PHD2181-417)): 20 nM
Emax at 100 µM (Hep-3B cells): 86%

CCCc1ccc2nc(-n3cc(C(=O)O)cn3)[nH]c(=O)c2c1 [Example 129, 1-(4-Oxo-6-propyl-3,4-dihydro-quinazolin-2-yl)-1H-pyrazole-4-carboxylic acid]
IC50 (human PHD2 (PHD2181-417)): 31.6 nM
Emax at 100 µM (Hep-3B cells): 94%

O=C(O)c1cnn(-c2nc3cc(Cl)ccc3c(=O)[nH]2)c1 [Example 1, 1-(7-Chloro-4-oxo-3,4-dihydro-quinazolin-2-yl)-1H-pyrazole-4-carboxylic acid]
IC50 (human PHD2 (PHD2181-417)): 50.1 nM
Emax at 100 µM (Hep-3B cells): 37%

O=C(O)c1cnn(-c2nc3cc(S(=O)(=O)c4ccc(Cl)cc4)ccc3c(=O)[nH]2)c1 [Example 82, 1-[7-(4-Chloro-benzenesulfonyl)-4-oxo-3,4-dihydro-quinazolin-2-yl]-1H-pyrazole-4-carboxylic acid]
IC50 (human PHD2 (PHD2181-417)): 63.1 nM
Emax at 100 µM (Hep-3B cells): 15%

COc1ccc2c(=O)[nH]c(-n3cc(C(=O)O)cn3)nc2c1 [Example 135, 1-(7-Methoxy-4-oxo-3,4-dihydro-quinazolin-2-yl)-1H-pyrazole-4-carboxylic acid]
IC50 (human PHD2 (PHD2181-417)): 79.4 nM
Emax at 100 µM (Hep-3B cells): 17%

Cc1cccc(C)c1NC(=O)c1ccc2nc(-n3cc(C(=O)O)cn3)[nH]c(=O)c2c1 [Example 163, 1-[6-(2,6-Dimethyl-phenylcarbamoyl)-4-oxo-3,4-dihydro-quinazolin-2-yl]-1H-pyrazole-4-carboxylic acid]
IC50 (human PHD2 (PHD2181-417)): 39.8 nM
Emax at 100 µM (Hep-3B cells): 14%
